Measurements as given in patent US8779002B2, “Methods for treating a variety of diseases and conditions, and compounds useful therefor” (Salk Institute for Biological Studies, priority 2007, dated 2014).

Tests used:
[1] = test system: Cortical Nerve; experiment: In vitro ischemia, cortical nerve; format: cell-based; set-up: key: + = positive result or enzyme activation
[2] = test system: Memory; experiment: Memory, animal models (Table 2); set-up: key: + = positive result or enzyme activation; details: in vivo
[3] = test system: Wistar rats; experiment: Novel object recognition task in rats; format: in vivo, rat; details: for Recognition index, Mean: Wistar rats, n=8
Protocol: FIG. 6 illustrates the effect of galantamine, compounds CNB-001, J147, SK186 and SKI 87 on object recognition task in Wistar rats. The data represent mean±SEM. *p<0.05 compared with the vehicle control.
This model is based on the greater spontaneous exploration of a novel object, compared with a familiar object, shown by rodents (see Ennaceur and Delacour in Behav. Brain Res. 31:47 (1988)). Male Wister rats are assessed for cognitive ability in a test apparatus comprising an open-field arena placed in a sound-attenuated room under dimmed lighting. Images of the open-field are captured by digital camera, and viewed on a monitor in an adjoining room. Each rat is subjected to the procedure separately and care is taken to remove any olfactory/taste cues by cleaning the arena and test objects with alcohol between trials and rats.
Adult male Wistar rats were employed in all rat studies. Animals were placed in the experimental rooms at postnatal day 80 and assigned unique identification numbers (tail marked). Pairs were housed in polycarbonate cages with filter tops and acclimated for 3 days prior to commencing any studies. Animals were maintained in a 12 hour light/dark cycle with room temperature maintained at 22±2° C. with a relative humidity maintained approximately 50%. Food and water were provided ad libitum.
All animals were examined, handled, and weighed for a further two days prior to initiation of the study to assure adequate health and suitability and to minimize non-specific stress associated with manipulation. Each animal was randomly assigned across the treatment groups and balanced by cage numbers. The novel object recognition experiment was performed during the animal's light cycle phase. Drug treatments were balanced across days and animals were only used once
The following compounds were used for this study—Reference compound (Galantamine; 3 mg/kg) was dissolved in 0.9% saline and administered i.p. 1 hour pre-test at a dose volume of 1 ml/kg, and all test compounds were handled in solution, and were kept at −80° C. until use. All compounds were administered orally 60 min prior to training at a volume of 1 ml/kg body weight.
Following a 5-minute habituation period, each rat was placed into the test arena in the presence of two identical objects (plastic shapes). Each rat was placed facing the same direction at the same position in the arena, and the time spent actively exploring the objects during a 5-minute test period (T1) was recorded. The rat was returned to its home cage between tests. After 24 hours, each rat was again placed in the test arena for 5 minutes (T2) in the presence of one of the familiar objects and a novel object, and the time spent exploring both objects was again recorded. The presentation order and position of the objects (left/right) was randomized between rats to prevent bias from order or place preference. A preference index for each object, the ratio of the time spent exploring either the familiar object or the novel object over the total time spent exploring both objects (during retention session T2) was used to measure cognitive function.
Data were analyzed by a one-way analysis of variance (ANOVA) followed by post-hoc comparisons with Fisher Tests when appropriate. An effect was considered significant if p<0.05. Data in the following tables are presented as the mean and standard error to the mean.

[4] = test system: CREB; experiment: CREB phosphorylation; format: cell-based, mouse; set-up: key: + = positive result or enzyme activation
Source text: CREB activation has been linked to cell survival and accordingly, is considered to be a validated therapeutic target (Vaishnov, et al, Biochem. Biophys. Res. Commun. 307:855-860 (2003)). Similar to the concept of programmed cell death which involves transcription factors pivotal in switching on the nerve cell death program is the transcriptional control of programmed cell life. For example, recent studies of the activation of the CREB transcription factor in stroke models have shown that CREB is phosphorylated (and presumably activated) in neurons that survive this insult.
CREB phosphorylation in response to oxidative stress is evaluated in the presence of invention compounds. Glutamate is added to HT22 cells in the presence or absence of Cmpd CNB-001 (at 1 μM). The ratio of phosphorylated CREB to total CREB is then measured as a function of time. Furthermore, all of the HT22 cells die in the absence of Cmpd CNB-001, and over 90% live in the presence of Cmpd CNB-001.

[5] = test system: PC12 cells; experiment: Glucose starvation assay; format: cell-based; set-up: key: + = positive result or enzyme activation; details: Cell Culture
Protocol: FIG. 1C illustrates the results of a glucose starvation assay. PC12 cells were starved for glucose plus or minus 20 nM J147; cell viability was then determined 48 hr later using the MTT assay (T. Soucek, R. Cumming, R. Dargusch, P. Maher and D. Schubert, Neuron 39 (2003) 43-56).

[6] = test system: Schaffer collateral CA1 pyramidal cell synapses in rat hippocampal slices; experiment: LTP induction in hippocampal slices; set-up: key to LTP: + = positive result or enzyme activation
Source text: Hippocampal slices were exposed to J147 during the time indicated by the black bar. The field excitatory postsynaptic potential (fEPSP) slope is expressed as the percentage of the value immediately before the addition of J147.
The effect of J147 is dose-dependent. The hippocampal slices were untreated or exposed to J147 for the time indicated by the black bar, and weak tetanic stimulation was applied at time 0. The fEPSP slope is expressed as the percentage of the value immediately before the application of weak tetanic stimulation. FIG. 3B illustrates the time course of changes in the fEPSP slope.
To compare the data among the groups, the averages of the fEPSP slopes 30-60 min after tetanic stimulation were calculated as an index of LTP magnitude; the results are shown in FIG. 3C. All the data are the mean±SEM […] vs none.

[7] = test system: Retinal Ganglion Cells; experiment: In vitro ischemia, retinal ganglion cells; format: cell-based; set-up: key: + = positive result or enzyme activation
[8] = Toxicology: animal weight or overall health; format: in vivo
[9] = 5 mg/kg orally 60 min prior to training
[10] = 10 mg/kg orally 60 min prior to training
[11] = 25 mg/kg orally 60 min prior to training

COc1cc(/C=C/c2cc(/C=C/c3ccc(O)c(OC)c3)n(-c3ccccc3)n2)ccc1O [CNB-001]
In Vitro Ischemia, Cortical Nerve [1]: + | Memory [2]: + | Memory, Animal [2]: + | Recognition index, Mean [3, 9]: 63.663 | Recognition index, Mean [3, 10]: 77.964 | Effect on recognition index ([3]; 10 mg/kg, versus vehicle, p<0.05): significantly increased | Recognition index, Mean [3, 11]: 45.226 | Fisher's PLSD for Recognition index, Mean Diff. (*vehicle, treatment) ([3]; vehicle versus 5 mg/kg oral): −11.741 | Fisher's PLSD for Recognition index, Mean Diff. (*vehicle, treatment) ([3]; vehicle versus 10 mg/kg oral): −26.042 | Fisher's PLSD for Recognition index, Mean Diff. (*vehicle, treatment) ([3]; vehicle versus 25 mg/kg oral): 6.697 | CREB [4]: + | Glucose Starvation [5]: + | LTP [6]: + | In Vitro Ischemia, Retinal Ganglion Cells [7]: + | Toxicology-no apparent effect on animal weight or overall health ([8]; several mo. (mice)): 500 ppm food

COc1cccc(/C=N/N(C(=O)C(F)(F)F)c2ccc(C)cc2C)c1 [Compound J147]
In Vitro Ischemia, Cortical Nerve [1]: + | Memory [2]: + | Memory, Animal [2]: + | Recognition index, Mean [3, 9]: 63.053 | Recognition index, Mean [3, 10]: 54.213 | Recognition index, Mean [3, 11]: 51.372 | Fisher's PLSD for Recognition index, Mean Diff. (*vehicle, treatment) ([3]; vehicle versus 5 mg/kg oral): −11.130 | Fisher's PLSD for Recognition index, Mean Diff. (*vehicle, treatment) ([3]; vehicle versus 10 mg/kg oral): −2.291 | Fisher's PLSD for Recognition index, Mean Diff. (*vehicle, treatment) ([3]; vehicle versus 25 mg/kg oral): .550 | CREB [4]: + | Glucose Starvation [5]: + | LTP [6]: + | Induction of LTP ([6]; after a weak tetanic stimulation (15 pulses at 100 Hz), fEPSP slope): facilitate the induction of LTP | Basal synaptic transmission ([6]; fEPSP slope, J147 1 μM): does not affect basal synaptic transmission | In Vitro Ischemia, Retinal Ganglion Cells [7]: + | Toxicology-no apparent effect on animal weight or overall health ([8]; gavage 10 d (mice)): 300 mg/kg
